What was measured:
barnyardgrass [1] = test: Test Example 1: foliage treatment, upland pot test; format: in vivo, Echinochloa crus-galli L.; conditions: observed 18th to 23rd day, 0 = non-treated, 100 = complete kill
Method in brief: (§1)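 Pots of upland field soil were sown and sprayed post-emergence at soybean 0.1–0.4, wheat 1.3–2.4, rice 1.2–2.6 and barnyardgrass 1.3–2.8 leaf stages. Formulations were diluted in water at 500 L/ha with 0.1% (v/v) spreader. Growth control (0 = untreated, 100 = complete kill) was judged by eye 18–23 days later.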

velvetleaf [2] = test: Test Example 2: soil surface treatment, upland pot test; format: in vivo, Abutilon theophrasti MEDIC.; conditions: active ingredient 1000 g/ha, observed 20th to 28th day
Method in brief: (§2)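 Pre-emergence soil-surface spray, 1 d after sowing; 1/170,000 ha pots, upland soil; WP or EC formulation, set a.i. rate, 1,500 L/ha water; visual growth-control score 0–100% at days 20–28 post-treatment.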

corn [3] = test: Test Example 1: foliage treatment, upland pot test; format: in vivo, Zea mays L.; conditions: crop, observed 18th to 23rd day, 0 = non-treated, 100 = complete kill
Method in brief: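 In this upland pot foliage test, corn plants at 2.1 to 3.2 leaf stages were sprayed by a small size sprayer. The spray was a conventionally formulated wettable powder or emulsifiable concentrate weighed to a set active ingredient amount, diluted in water at 500 L/ha, plus 0.1% (v/v) agricultural spreader. Visual assessment on days 18 to 23 gave growth controlling degree (%), where 0 equals untreated and 100 means complete kill.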

barnyardgrass [4] = test: Test Example 2: soil surface treatment, upland pot test; format: in vivo, Echinochloa crus-galli L.; conditions: active ingredient 1000 g/ha, observed 20th to 28th day, 0 = non-treated, 100 = complete kill
Method in brief: as §2

prickly sida [5] = test: as above; format: in vivo, Sida spinosa L.; conditions: active ingredient 1000 g/ha, observed 20th to 28th day
Method in brief: as §2

japanese ribbon wapato = test: Test Example 3: paddy pot test, application under submerged conditions; format: in vivo, Sagittaria pygniaea; conditions: active ingredient 500 g/ha; submerged application at primary leaf stage; visually observed 14 days after application; 0 = non-treated, 100 = complete kill
Method in brief: (§3)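 After sowing seeds and planting wapato tubers in flooded paddy soil, an aqueous dilution of the formulated compound was added to the 3–4 cm flood water at early leaf stage. Percent growth control relative to the untreated plot was assessed visually on day 14.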

soybean [6] = test: Test Example 2: soil surface treatment, upland pot test; format: in vivo, Glycine max Merr.; conditions: active ingredient 1000 g/ha, observed 20th to 28th day
Method in brief: as §2

japanese bulrush = test: Test Example 3: paddy pot test, application under submerged conditions; format: in vivo, Scirpus juncoides; conditions: active ingredient 500 g/ha; submerged application at 0.5 leaf stage; visually observed 14 days after application; 0 = non-treated, 100 = complete kill
Method in brief: as §3

redroot pigweed [7] = test: Test Example 1: foliage treatment, upland pot test; format: in vivo, Amaranthus retroflexus L.; conditions: observed 18th to 23rd day, 0 = non-treated, 100 = complete kill
soybean [8] = test: Test Example 1: foliage treatment, upland pot test; format: in vivo, Glycine max Merr.; conditions: crop, observed 18th to 23rd day, 0 = non-treated, 100 = complete kill
Method in brief: as §1

redroot pigweed [9] = test: Test Example 2: soil surface treatment, upland pot test; format: in vivo, Amaranthus retroflexus L.; conditions: active ingredient 1000 g/ha, observed 20th to 28th day
Method in brief: as §2

crabgrass [10] = test: as above; format: in vivo, Digitaria sanguinalis L.; conditions: active ingredient 1000 g/ha, observed 20th to 28th day
Method in brief: as §2

crabgrass [11] = test: Test Example 1: foliage treatment, upland pot test; format: in vivo, Digitaria sanguinalis L.; conditions: observed 18th to 23rd day, 0 = non-treated, 100 = complete kill
barnyardgrass [12] = test: Test Example 3: paddy pot test, application under submerged conditions; format: in vivo, Echinochloa crus-galli L.; conditions: active ingredient 500 g/ha; submerged application at 0.5 leaf stage; visually observed 14 days after application; 0 = non-treated, 100 = complete kill
Method in brief: as §3

rice [13] = test: Test Example 2: soil surface treatment, upland pot test; format: in vivo, Oryza sativa L.; conditions: active ingredient 1000 g/ha, observed 20th to 28th day
Method in brief: as §2

green foxtail [14] = test: Test Example 1: foliage treatment, upland pot test; format: in vivo, Setaria viridis L.; conditions: observed 18th to 23rd day, 0 = non-treated, 100 = complete kill
rice [15] = test: Test Example 1: foliage treatment, upland pot test; format: in vivo, Oryza sativa L.; conditions: crop, observed 18th to 23rd day, 0 = non-treated, 100 = complete kill
Method in brief: as §1

rice (var. Nihonbare) = test: Test Example 3: paddy pot test, transplanted rice; format: in vivo, Oryza sativa L.; conditions: active ingredient 500 g/ha, applied 4th day after transplantation, visually observed 21st day after application, 0 = non-treated, 100 = complete kill
Method in brief: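 Rice (2-leaf stage) was transplanted 3 cm deep into puddled, leveled paddy soil under 3–4 cm flooding. On day 4 after transplanting, diluted wettable powder or emulsifiable concentrate was pipetted onto the water at a predetermined active-ingredient dose. Growth control (0 = untreated, 100 = complete kill) was scored visually 21 days later.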

wheat [16] = test: Test Example 2: soil surface treatment, upland pot test; format: in vivo, Triticum spp.; conditions: active ingredient 1000 g/ha, observed 20th to 28th day
Method in brief: as §2

tall morningglory = test: Test Example 1: foliage treatment, upland pot test; format: in vivo, Ipomoea purpurea L.; conditions: observed 18th to 23rd day, 0 = non-treated, 100 = complete kill
Source text: Upland field soil was put into a 1/170,000 ha pot, and seed of various plants were sown. Then, when the plants reached predetermined leaf stages ((1) barnyardgrass: 1.3 to 2.8 leaf stages, (2) crabgrass: 1.0 to 2.8 leaf stages, (3) green foxtail: 1.3 to 2.6 leaf stages, (4) redroot pigweed: 0.1 to 1.2 leaf stages, (5) prickly sida: 0.1 to 1.2 leaf stages, (6) velvetleaf: 0.1 to 1.2 leaf stages, (7) tall morningglory: 0.1 to 1.5 leaf stages, (8) rice: 1.2 to 2.6 leaf stages, (9) wheat: 1.3 to 2.4 leaf stages, (10) corn, 2.1 to 3.2 leaf stages, (11) soybean: 0.1 to 0.4 leaf stage), a wettable powder or emulsifiable concentrate having the compound of the present invention formulated in accordance with a usual formulation method, was weighed so that the active ingredient would be a predetermined amount, and diluted with water in an amount of 500 L/ha. To the diluted solution, 0.1% (v/v) of agricultural spreader was added. The herbicide thus adjusted was applied by a small size sprayer for foliage treatment. On the 18th to 23rd days after the application of the herbicide, the growth of the respective plants was visually observed, and the herbicidal effects were evaluated by the growth controlling degrees (%) ranging from 0 (equivalent to the non-treated plot) to 100 (complete kill), whereby the results shown in Table 3, were obtained.

prickly sida [17] = test: Test Example 1: foliage treatment, upland pot test; format: in vivo, Sida spinosa L.; conditions: observed 18th to 23rd day, 0 = non-treated, 100 = complete kill
corn [18] = test: Test Example 2: soil surface treatment, upland pot test; format: in vivo, Zea mays L.; conditions: active ingredient 1000 g/ha, observed 20th to 28th day
Method in brief: as §2

green foxtail [19] = test: as above; format: in vivo, Setaria viridis L.; conditions: active ingredient 1000 g/ha, observed 20th to 28th day
Method in brief: as §2

velvetleaf [20] = test: Test Example 1: foliage treatment, upland pot test; format: in vivo, Abutilon theophrasti MEDIC.; conditions: observed 18th to 23rd day, 0 = non-treated, 100 = complete kill
wheat [21] = test: Test Example 1: foliage treatment, upland pot test; format: in vivo, Triticum spp.; conditions: crop, active ingredient 1000 g/ha, observed 18th to 23rd day, 0 = non-treated, 100 = complete kill
Method in brief: as §1

Structure (SMILES) | Growth controlling degree (%) Barnyardgrass (barnyardgrass [1]; active ingredient 500 g/ha) [%] | Growth controlling degree (%) Velvetleaf (velvetleaf [2]) [%] | Growth controlling degree (%) Corn (corn [3]; active ingredient 500 g/ha) [%] | Growth controlling degree (%) Barnyardgrass (barnyardgrass [4]) [%] | Growth controlling degree (%) Prickly sida (prickly sida [5]) [%] | Growth controlling degree (%) Japanese ribbon wapato (japanese ribbon wapato) [%] | Growth controlling degree (%) Soyabean (soybean [6]) [%] | Growth controlling degree (%) Japanese bulrush (japanese bulrush) [%] | Growth controlling degree (%) Redroot pigweed (redroot pigweed [7]; active ingredient 500 g/ha) [%] | Growth controlling degree (%) Soybean (soybean [8]; active ingredient 500 g/ha) [%] | Growth controlling degree (%) Redroot pigweed (redroot pigweed [9]) [%] | Growth controlling degree (%) Crabgrass (crabgrass [10]) [%] | Growth controlling degree (%) Crabgrass (crabgrass [11]; active ingredient 500 g/ha) [%] | Growth controlling degree (%) Barnyardgrass (barnyardgrass [12]) [%] | Growth controlling degree (%) Rice (rice [13]) [%] | Growth controlling degree (%) Green foxtail (green foxtail [14]; active ingredient 500 g/ha) [%] | Growth controlling degree (%) Rice (rice [15]; active ingredient 500 g/ha) [%] | Growth controlling degree (%) Rice (rice (var. Nihonbare)) [%] | Growth controlling degree (%) wheat (wheat [16]) [%] | Growth controlling degree (%) Tall morningglory (tall morningglory; active ingredient 500 g/ha) [%] | other results
CC(C(=O)N(C)C(c1cnccc1C(F)(F)F)C(C)C)c1ccccc1 (centres unmarked) [I-12] | 50 | 80 | 10 | 100 | 90 | 70 | 20 | 100 | 50 | 30 | 90 | 100 | 95 | 100 | 10 | 60 | 0 | 30 | 40 | 70 | Growth controlling degree (%) Prickly sida (prickly sida [17]; active ingredient 500 g/ha): 60%; Growth controlling degree (%) Corn (corn [18]): 0%; Growth controlling degree (%) Green foxtail (green foxtail [19]): 100%; Growth controlling degree (%) Velvetleaf (velvetleaf [20]; active ingredient 500 g/ha): 80%
CC(C)C(c1cnccc1C(F)(F)F)N(C)C(=O)Cc1c(F)cccc1F (centres unmarked) [I-13] | 80 | 100 | 70 | 100 | 90 | 90 | 20 | 95 | 80 | 90 | 90 | 100 | 80 | 100 | 30 | 80 | 20 | 30 | 98 | 95 | Growth controlling degree (%) Prickly sida (prickly sida [17]; active ingredient 500 g/ha): 70%; Growth controlling degree (%) Corn (corn [18]): 40%; Growth controlling degree (%) Green foxtail (green foxtail [19]): 100%; Growth controlling degree (%) Velvetleaf (velvetleaf [20]; active ingredient 500 g/ha): 80%
CC(C)C(c1cnccc1C(F)(F)F)N(C)C(=O)Cc1ccc(Cl)cc1Cl (centres unmarked) [I-14] | 50 | 60 | 40 | 100 | 60 | 30 | 0 | 98 | 80 | 20 | 85 | 100 | 70 | 100 | 10 | 60 | 20 | 10 | 30 | 95 | Growth controlling degree (%) Prickly sida (prickly sida [17]; active ingredient 500 g/ha): 80%; Growth controlling degree (%) Corn (corn [18]): 20%; Growth controlling degree (%) Green foxtail (green foxtail [19]): 100%; Growth controlling degree (%) Velvetleaf (velvetleaf [20]; active ingredient 500 g/ha): 70%
CC(C)COC(=O)N(C)C(c1cnccc1C(F)(F)F)c1cccc2ccccc12 (centres unmarked) [I-52] |  |  |  |  |  |  |  |  |  |  |  |  |  |  |  |  |  |  |  |  | Growth controlling degree (%) Barnyardgrass (barnyardgrass [1]; active ingredient 1000 g/ha): 50%; Growth controlling degree (%) Corn (corn [3]; active ingredient 1000 g/ha): 60%; Growth controlling degree (%) Redroot pigweed (redroot pigweed [7]; active ingredient 1000 g/ha): 60%; Growth controlling degree (%) Soybean (soybean [8]; active ingredient 1000 g/ha): 0%; Growth controlling degree (%) Crabgrass (crabgrass [11]; active ingredient 1000 g/ha): 80%; Growth controlling degree (%) Green foxtail (green foxtail [14]; active ingredient 1000 g/ha): 20%; Growth controlling degree (%) Rice (rice [15]; active ingredient 1000 g/ha): 10%; Growth controlling degree (%) wheat (wheat [21]): 10%; Growth controlling degree (%) Tall morningglory (tall morningglory; active ingredient 1000 g/ha): 95%; Growth controlling degree (%) Prickly sida (prickly sida [17]; active ingredient 1000 g/ha): 70%; Growth controlling degree (%) Velvetleaf (velvetleaf [20]; active ingredient 1000 g/ha): 95%
